# Results published in ChEMBL document CHEMBL3774317, “Design and synthesis of novel tamoxifen analogues that avoid CYP2D6 metabolism” (Eur J Med Chem, 2016).
# Columns and labels:
# Format in all cases: functional
# KM12 [1] = experiment: Cytotoxicity against human KM12 cells assessed as cell growth at 10^-7 M after 48 hrs by SRB assay; conditions: KM12, 48 h, read-out: Activity
# [2] = Cytotoxicity against human HOP62 cells assessed as cell growth at 10^-8 M after 48 hrs by SRB assay; conditions: HOP-62, 48 h, read-out: Activity
# HT-29 = experiment: Cytotoxicity against human HT-29 cells assessed as cell growth at 10^-5 M after 48 hrs by SRB assay; conditions: HT-29, 48 h, read-out: Activity
# A549 = experiment: Cytotoxicity against human A549 cells assessed as cell growth at 10^-6 M after 48 hrs by SRB assay; conditions: A549, 48 h, read-out: Activity
# CCRF-CEM = experiment: Cytotoxicity against human CCRF-CEM cells assessed as cell growth at 10^-8 M after 48 hrs by SRB assay; conditions: read-out: Activity
# NCI-H23 [3] = experiment: Cytotoxicity against human NCI-H23 cells assessed as cell growth at 10^-5 M after 48 hrs by SRB assay; conditions: NCI-H23, 48 h, read-out: Activity
# MCF7 [4] = experiment: Cytotoxicity against human MCF7 cells assessed as cell growth at 10^-7 M after 48 hrs by SRB assay; conditions: MCF7, 48 h, read-out: Activity
# [5] = Cytotoxicity against human HCT116 cells assessed as cell growth at 10^-8 M after 48 hrs by SRB assay; conditions: HCT-116, 48 h, read-out: Activity
# KM12 [6] = experiment: Cytotoxicity against human KM12 cells assessed as cell growth at 10^-5 M after 48 hrs by SRB assay; conditions: KM12, 48 h, read-out: Activity
# SR [7] = experiment: Cytotoxicity against human SR cells assessed as cell growth at 10^-6 M after 48 hrs by SRB assay; conditions: read-out: Activity
# MDA-MB-231 [8] = experiment: Cytotoxicity against human MDA-MB-231 cells assessed as cell growth at 10^-4 M after 48 hrs by SRB assay; conditions: MDA-MB-231, 48 h, read-out: Activity
# SK-MEL-5 [9] = experiment: Cytotoxicity against human SK-MEL-5 cells assessed as cell growth at 10^-4 M after 48 hrs by SRB assay; conditions: SK-MEL-5, 48 h, read-out: Activity
# [10] = Cytotoxicity against human SW620 cells assessed as cell growth at 10^-5 M after 48 hrs by SRB assay; conditions: SW-620, 48 h, read-out: Activity
# SR [11] = experiment: Cytotoxicity against human SR cells assessed as cell growth at 10^-7 M after 48 hrs by SRB assay; conditions: read-out: Activity
# [12] = Cytotoxicity against human SF295 cells assessed as cell growth at 10^-5 M after 48 hrs by SRB assay; conditions: SF-295, 48 h, read-out: Activity
# [13] = Cytotoxicity against human SF268 cells assessed as cell growth at 10^-4 M after 48 hrs by SRB assay; conditions: SF-268, 48 h, read-out: Activity
# [14] = Cytotoxicity against human IGROV1 cells assessed as cell growth at 10^-7 M after 48 hrs by SRB assay; conditions: IGROV-1, 48 h, read-out: Activity
# [15] = Cytotoxicity against human IGROV1 cells assessed as cell growth at 10^-8 M after 48 hrs by SRB assay; conditions: IGROV-1, 48 h, read-out: Activity
# [16] = Cytotoxicity against human HCT116 cells assessed as cell growth at 10^-4 M after 48 hrs by SRB assay; conditions: HCT-116, 48 h, read-out: Activity
# MCF7 [17] = experiment: Cytotoxicity against human MCF7 cells assessed as cell growth at 10^-5 M after 48 hrs by SRB assay; conditions: MCF7, 48 h, read-out: Activity
# [18] = Cytotoxicity against human UACC62 cells assessed as cell growth at 10^-8 M after 48 hrs by SRB assay; conditions: UACC-62, 48 h, read-out: Activity
# [19] = Cytotoxicity against human UACC257 cells assessed as cell growth at 5 nM after 48 hrs by SRB assay; conditions: UACC-257, 48 h, read-out: Activity
# NCI-H226 = experiment: Cytotoxicity against human NCI-H226 cells assessed as cell growth at 50 nM after 48 hrs by SRB assay; conditions: NCI-H226, 48 h, read-out: Activity
# MDA-MB-231 [20] = experiment: Cytotoxicity against human MDA-MB-231 cells assessed as cell growth at 50 uM after 48 hrs by SRB assay; conditions: MDA-MB-231, 48 h, read-out: Activity
# [21] = Cytotoxicity against human IGROV1 cells assessed as cell growth at 5 uM after 48 hrs by SRB assay; conditions: IGROV-1, 48 h, read-out: Activity
# MDA-MB-468 [22] = experiment: Cytotoxicity against human MDA-MB-468 cells assessed as cell growth at 50 uM after 48 hrs by SRB assay; conditions: MDA-MB-468, 48 h, read-out: Activity
# [23] = Cytotoxicity against human UACC257 cells assessed as cell growth at 0.5 uM after 48 hrs by SRB assay; conditions: UACC-257, 48 h, read-out: Activity
# [24] = Cytotoxicity against human SKOV3 cells assessed as cell growth at 5 nM after 48 hrs by SRB assay; conditions: SK-OV-3, 48 h, read-out: Activity
# [25] = Cytotoxicity against human RXF393 cells assessed as cell growth at 0.5 uM after 48 hrs by SRB assay; conditions: RXF 393, 48 h, read-out: Activity
# [26] = Cytotoxicity against human SNB19 cells assessed as cell growth at 50 uM after 48 hrs by SRB assay; conditions: SNB-19, 48 h, read-out: Activity
# [27] = Cytotoxicity against human SF295 cells assessed as cell growth at 5 nM after 48 hrs by SRB assay; conditions: SF-295, 48 h, read-out: Activity
# [28] = Cytotoxicity against human HCT116 cells assessed as cell growth at 50 nM after 48 hrs by SRB assay; conditions: HCT-116, 48 h, read-out: Activity
# T47D = experiment: Cytotoxicity against human T47D cells assessed as cell growth at 0.5 uM after 48 hrs by SRB assay; conditions: read-out: Activity
# NCI-H23 [29] = experiment: Cytotoxicity against human NCI-H23 cells assessed as cell growth at 5 nM after 48 hrs by SRB assay; conditions: NCI-H23, 48 h, read-out: Activity
# [30] = Cytotoxicity against human MOLT4 cells assessed as cell growth at 50 uM after 48 hrs by SRB assay; conditions: MOLT-4, 48 h, read-out: Activity
# [31] = Cytotoxicity against human COLO205 cells assessed as cell growth at 0.5 uM after 48 hrs by SRB assay; conditions: COLO 205, 48 h, read-out: Activity
# MDA-MB-468 [32] = experiment: Cytotoxicity against human MDA-MB-468 cells assessed as cell growth at 0.5 uM after 48 hrs by SRB assay; conditions: MDA-MB-468, 48 h, read-out: Activity
# SK-MEL-5 [33] = experiment: Cytotoxicity against human SK-MEL-5 cells assessed as cell growth at 50 uM after 48 hrs by SRB assay; conditions: SK-MEL-5, 48 h, read-out: Activity
# [34] = Cytotoxicity against human TK10 cells assessed as cell growth at 50 uM after 48 hrs by SRB assay; conditions: TK-10, 48 h, read-out: Activity
# M14 = experiment: Cytotoxicity against human M14 cells assessed as cell growth at 50 nM after 48 hrs by SRB assay; conditions: M14, 48 h, read-out: Activity
# [35] = Cytotoxicity against human OVCAR8 cells assessed as cell growth at 5 nM after 48 hrs by SRB assay; conditions: OVCAR-8, 48 h, read-out: Activity
# Malme-3M = experiment: Cytotoxicity against human MALME-3M cells assessed as cell growth at 5 nM after 48 hrs by SRB assay; conditions: read-out: Activity
compound,measurement,setting,value
C/C(=C(/c1ccc(O)cc1)c1ccc(OCCN2CCCC2)cc1)c1ccccc1,growth at 0.1 µM,KM12 [1],100%
same,growth at 0.01 µM,[2],90%
same,growth at 10 µM,HT-29,-66%
same,growth at 1 µM,A549,106%
same,growth at 0.01 µM,CCRF-CEM,110%
same,growth at 10 µM,NCI-H23 [3],29%
same,growth at 0.1 µM,MCF7 [4],44%
same,growth at 0.01 µM,[5],97%
same,growth at 10 µM,KM12 [6],12%
same,growth at 1 µM,SR [7],80%
same,growth at 100 µM,MDA-MB-231 [8],-71%
same,growth at 100 µM,SK-MEL-5 [9],-100%
same,growth at 10 µM,[10],-40%
same,growth at 0.1 µM,SR [11],90%
same,growth at 10 µM,[12],-57%
same,growth at 100 µM,[13],-80%
same,growth at 0.1 µM,[14],101%
same,growth at 0.01 µM,[15],106%
same,growth at 100 µM,[16],-98%
same,growth at 10 µM,MCF7 [17],-47%
same,growth at 0.01 µM,[18],99%
CCCCCCCCCC(=O)Oc1ccc(/C(=C(/C)c2ccccc2)c2ccc(OCCN3CCCC3)cc2)cc1,growth at 0.005 µM,[19],95%
same,growth at 0.05 µM,NCI-H226,94%
same,growth at 50 µM,MDA-MB-231 [20],-67%
same,growth at 5 µM,[21],84%
same,growth at 50 µM,MDA-MB-468 [22],-87%
same,growth at 0.5 µM,[23],76%
same,growth at 0.005 µM,[24],101%
same,growth at 0.5 µM,[25],61%
same,growth at 50 µM,[26],-77%
same,growth at 0.005 µM,[27],94%
same,growth at 0.05 µM,[28],95%
same,growth at 0.5 µM,T47D,46%
same,growth at 0.005 µM,NCI-H23 [29],92%
same,growth at 50 µM,[30],-53%
same,growth at 0.5 µM,[31],44%
same,growth at 0.5 µM,MDA-MB-468 [32],69%
same,growth at 50 µM,SK-MEL-5 [33],-100%
same,growth at 50 µM,[34],-87%
same,growth at 0.05 µM,M14,94%
same,growth at 0.005 µM,[35],102%
same,growth at 0.005 µM,Malme-3M,108%
